system: Human rhinovirus sp.; assay: Antiviral activity against rhinoviral 8 serotype in a plaque inhibition assay using monolayers of M-HeLa cells; assay type: functional, organism-based

| SMILES | IC50 [µM] |
| --- | --- |
| Cc1ccc(Cn2cnc3c(N(C)C)nc(C(F)(F)F)nc32)c(C)c1 | > 8 |
| CN(C)c1nc(C(F)(F)F)nc2c1ncn2Cc1ccccc1Cl | 7.9 |
| CC(C)Oc1ccc(Cn2cnc3c(N(C)C)nc(C(F)(F)F)nc32)cc1 | 10 |

system: Human rhinovirus sp.; assay: Antiviral activity against rhinoviral 2 serotype in a plaque inhibition assay using monolayers of M-HeLa cells; assay type: functional, organism-based

| SMILES | IC50 [µM] |
| --- | --- |
| Cc1ccc(Cn2cnc3c(N(C)C)nc(C(F)(F)F)nc32)c(C)c1 | 2.8 |
| CN(C)c1nc(C(F)(F)F)nc2c1ncn2Cc1ccccc1Cl | 9.4 |
| CC(C)Oc1ccc(Cn2cnc3c(N(C)C)nc(C(F)(F)F)nc32)cc1 | 5.2 |

system: Human rhinovirus sp.; assay: Antiviral activity against rhinoviral-1B serotype in a plaque inhibition assay using monolayers of M-HeLa cells; assay type: functional, organism-based

| SMILES | IC50 [µM] |
| --- | --- |
| CN(C)c1nc(C(F)(F)F)nc2c1ncn2Cc1ccc(-c2ccccc2)cc1 | 14 |
| CN(C)c1nc(C(F)(F)F)nc2c1ncn2Cc1ccc(Cl)c([N+](=O)[O-])c1 | 2.1 |
| CN(C)c1nc(C(F)(F)F)nc2c1ncn2Cc1ccc(C#N)cc1 | 0.3 |
| Cc1ccc(Cn2cnc3c(N(C)C)nc(C(F)(F)F)nc32)c(C)c1 | 0.11 |
| CN(C)c1nc(C(F)(F)F)nc2c1ncn2Cc1ccccc1Cl | 0.2 |
| CC(C)Oc1ccc(Cn2cnc3c(N(C)C)nc(C(F)(F)F)nc32)cc1 | 1 |

system: Human rhinovirus sp.; assay: Antiviral activity against rhinoviral 18 serotype in a plaque inhibition assay using monolayers of M-HeLa cells; assay type: functional, organism-based

| SMILES | IC50 [µM] |
| --- | --- |
| CC(C)Oc1ccc(Cn2cnc3c(N(C)C)nc(C(F)(F)F)nc32)cc1 | 6.8 |

system: Human rhinovirus sp.; assay: Percent inhibitory activity at 8 uM against rhinoviral 5 serotype in a plaque inhibition assay using monolayers of M-HeLa cells; assay type: functional

| SMILES | Inhibition [%] |
| --- | --- |
| CN(C)c1nc(C(F)(F)F)nc2c1ncn2Cc1ccccc1Cl | 24 |

system: Human rhinovirus sp.; assay: Percent inhibitory activity at 8 uM against rhinoviral 13 serotype in a plaque inhibition assay using monolayers of M-HeLa cells; assay type: functional

| SMILES | Inhibition [%] |
| --- | --- |
| Cc1ccc(Cn2cnc3c(N(C)C)nc(C(F)(F)F)nc32)c(C)c1 | 13 |
| CN(C)c1nc(C(F)(F)F)nc2c1ncn2Cc1ccccc1Cl | 24 |
| CC(C)Oc1ccc(Cn2cnc3c(N(C)C)nc(C(F)(F)F)nc32)cc1 | 39 |

system: Human rhinovirus sp.; assay: Antiviral activity against rhinoviral 31 serotype in a plaque inhibition assay using monolayers of M-HeLa cells; assay type: functional, organism-based

| SMILES | IC50 [µM] |
| --- | --- |
| Cc1ccc(Cn2cnc3c(N(C)C)nc(C(F)(F)F)nc32)c(C)c1 | 13 |
| CC(C)Oc1ccc(Cn2cnc3c(N(C)C)nc(C(F)(F)F)nc32)cc1 | 4.2 |

system: Human rhinovirus sp.; assay: Percent inhibitory activity at 8 uM against rhinoviral 29 serotype in a plaque inhibition assay using monolayers of M-HeLa cells; assay type: functional

| SMILES | Inhibition [%] |
| --- | --- |
| Cc1ccc(Cn2cnc3c(N(C)C)nc(C(F)(F)F)nc32)c(C)c1 | 20 |

system: Human rhinovirus sp.; assay: Antiviral activity against rhinoviral 16 serotype in a plaque inhibition assay using monolayers of M-HeLa cells; assay type: functional, organism-based

| SMILES | IC50 [µM] |
| --- | --- |
| Cc1ccc(Cn2cnc3c(N(C)C)nc(C(F)(F)F)nc32)c(C)c1 | 1.2 |
| CN(C)c1nc(C(F)(F)F)nc2c1ncn2Cc1ccccc1Cl | 4.3 |
| CC(C)Oc1ccc(Cn2cnc3c(N(C)C)nc(C(F)(F)F)nc32)cc1 | 2.1 |

system: Human rhinovirus sp.; assay: Antiviral activity against rhinoviral 30 serotype in a plaque inhibition assay using monolayers of M-HeLa cells; assay type: functional, organism-based

| SMILES | IC50 [µM] |
| --- | --- |
| CC(C)Oc1ccc(Cn2cnc3c(N(C)C)nc(C(F)(F)F)nc32)cc1 | 6.6 |

system: Human rhinovirus sp.; assay: Antiviral activity against rhinoviral 9 serotype in a plaque inhibition assay using monolayers of M-HeLa cells; assay type: functional, organism-based

| SMILES | IC50 [µM] |
| --- | --- |
| Cc1ccc(Cn2cnc3c(N(C)C)nc(C(F)(F)F)nc32)c(C)c1 | 0.95 |
| CN(C)c1nc(C(F)(F)F)nc2c1ncn2Cc1ccccc1Cl | 1.9 |
| CC(C)Oc1ccc(Cn2cnc3c(N(C)C)nc(C(F)(F)F)nc32)cc1 | 1.5 |

system: Human rhinovirus sp.; assay: Percent inhibitory activity at 8 uM against rhinoviral 19s erotype in a plaque inhibition assay using monolayers of M-HeLa cells; assay type: functional

| SMILES | Inhibition [%] |
| --- | --- |
| Cc1ccc(Cn2cnc3c(N(C)C)nc(C(F)(F)F)nc32)c(C)c1 | 36 |
| CN(C)c1nc(C(F)(F)F)nc2c1ncn2Cc1ccccc1Cl | 27 |
| CC(C)Oc1ccc(Cn2cnc3c(N(C)C)nc(C(F)(F)F)nc32)cc1 | 33 |

system: Human rhinovirus sp.; assay: Percent inhibitory activity at 8 uM against rhinoviral 21 serotype in a plaque inhibition assay using monolayers of M-HeLa cells; assay type: functional

| SMILES | Inhibition [%] |
| --- | --- |
| Cc1ccc(Cn2cnc3c(N(C)C)nc(C(F)(F)F)nc32)c(C)c1 | 16 |
| CN(C)c1nc(C(F)(F)F)nc2c1ncn2Cc1ccccc1Cl | 38 |
| CC(C)Oc1ccc(Cn2cnc3c(N(C)C)nc(C(F)(F)F)nc32)cc1 | 40 |

system: Human rhinovirus sp.; assay: Percent inhibitory activity at 8 uM against rhinoviral 15 serotype in a plaque inhibition assay using monolayers of M-HeLa cells; assay type: functional

| SMILES | Inhibition [%] |
| --- | --- |
| Cc1ccc(Cn2cnc3c(N(C)C)nc(C(F)(F)F)nc32)c(C)c1 | 30 |
| CN(C)c1nc(C(F)(F)F)nc2c1ncn2Cc1ccccc1Cl | 30 |
| CC(C)Oc1ccc(Cn2cnc3c(N(C)C)nc(C(F)(F)F)nc32)cc1 | 40 |

system: Human rhinovirus sp.; assay: Antiviral activity against rhinoviral 12 serotype in a plaque inhibition assay using monolayers of M-HeLa cells; assay type: functional, organism-based

| SMILES | IC50 [µM] |
| --- | --- |
| Cc1ccc(Cn2cnc3c(N(C)C)nc(C(F)(F)F)nc32)c(C)c1 | 7.2 |
| CN(C)c1nc(C(F)(F)F)nc2c1ncn2Cc1ccccc1Cl | 8.1 |
| CC(C)Oc1ccc(Cn2cnc3c(N(C)C)nc(C(F)(F)F)nc32)cc1 | 10 |

system: Human rhinovirus sp.; assay: Antiviral activity against rhinoviral 14 serotype in a plaque inhibition assay using monolayers of M-HeLa cells; assay type: functional, organism-based

| SMILES | IC50 [µM] |
| --- | --- |
| Cc1ccc(Cn2cnc3c(N(C)C)nc(C(F)(F)F)nc32)c(C)c1 | 11 |
| CN(C)c1nc(C(F)(F)F)nc2c1ncn2Cc1ccccc1Cl | 8 |

system: Human rhinovirus sp.; assay: Percent inhibitory activity at 8 uM against rhinoviral 14 serotype in a plaque inhibition assay using monolayers of M-HeLa cells; assay type: functional

| SMILES | Inhibition [%] |
| --- | --- |
| CC(C)Oc1ccc(Cn2cnc3c(N(C)C)nc(C(F)(F)F)nc32)cc1 | 22 |

system: Human rhinovirus sp.; assay: Antiviral activity against rhinoviral 3 serotype in a plaque inhibition assay using monolayers of M-HeLa cells; assay type: functional, organism-based

| SMILES | IC50 [µM] |
| --- | --- |
| CN(C)c1nc(C(F)(F)F)nc2c1ncn2Cc1ccccc1Cl | 9 |
| CC(C)Oc1ccc(Cn2cnc3c(N(C)C)nc(C(F)(F)F)nc32)cc1 | 8 |

system: Human rhinovirus sp.; assay: Antiviral activity against rhinoviral-18 serotype in a plaque inhibition assay using monolayers of M-HeLa cells; assay type: functional, organism-based

| SMILES | IC50 [µM] |
| --- | --- |
| Cc1ccc(Cn2cnc3c(N(C)C)nc(C(F)(F)F)nc32)c(C)c1 | 6.1 |
| CN(C)c1nc(C(F)(F)F)nc2c1ncn2Cc1ccccc1Cl | 13 |

system: Human rhinovirus sp.; assay: Percent inhibitory activity at 8 uM against rhinoviral 30 serotype in a plaque inhibition assay using monolayers of M-HeLa cells; assay type: functional

| SMILES | Inhibition [%] |
| --- | --- |
| Cc1ccc(Cn2cnc3c(N(C)C)nc(C(F)(F)F)nc32)c(C)c1 | 33 |
| CN(C)c1nc(C(F)(F)F)nc2c1ncn2Cc1ccccc1Cl | 31 |

system: Human rhinovirus sp.; assay: Antiviral activity against rhinoviral 29 serotype in a plaque inhibition assay using monolayers of M-HeLa cells; assay type: functional, organism-based

| SMILES | IC50 [µM] |
| --- | --- |
| CN(C)c1nc(C(F)(F)F)nc2c1ncn2Cc1ccccc1Cl | 4.2 |
| CC(C)Oc1ccc(Cn2cnc3c(N(C)C)nc(C(F)(F)F)nc32)cc1 | 2.5 |

system: Human rhinovirus sp.; assay: Percent inhibitory activity at 8 uM against rhinoviral 3 serotype in a plaque inhibition assay using monolayers of M-HeLa cells; assay type: functional

| SMILES | Inhibition [%] |
| --- | --- |
| Cc1ccc(Cn2cnc3c(N(C)C)nc(C(F)(F)F)nc32)c(C)c1 | 40 |

system: Human rhinovirus sp.; assay: Antiviral activity against rhinoviral-1A serotype in a plaque inhibition assay using monolayers of M-HeLa cells; assay type: functional, organism-based

| SMILES | IC50 [µM] |
| --- | --- |
| Cc1ccc(Cn2cnc3c(N(C)C)nc(C(F)(F)F)nc32)c(C)c1 | 0.83 |
| CN(C)c1nc(C(F)(F)F)nc2c1ncn2Cc1ccccc1Cl | 4 |
| CC(C)Oc1ccc(Cn2cnc3c(N(C)C)nc(C(F)(F)F)nc32)cc1 | 2.8 |

system: Human rhinovirus sp.; assay: Percent inhibitory activity at 8 uM against rhinoviral 31 serotype in a plaque inhibition assay using monolayers of M-HeLa cells; assay type: functional

| SMILES | Inhibition [%] |
| --- | --- |
| CN(C)c1nc(C(F)(F)F)nc2c1ncn2Cc1ccccc1Cl | 38 |

system: Human rhinovirus sp.; assay: Antiviral activity against rhinoviral 4 serotype in a plaque inhibition assay using monolayers of M-HeLa cells; assay type: functional, organism-based

| SMILES | IC50 [µM] |
| --- | --- |
| Cc1ccc(Cn2cnc3c(N(C)C)nc(C(F)(F)F)nc32)c(C)c1 | 7.6 |
| CN(C)c1nc(C(F)(F)F)nc2c1ncn2Cc1ccccc1Cl | 10 |
| CC(C)Oc1ccc(Cn2cnc3c(N(C)C)nc(C(F)(F)F)nc32)cc1 | 3.7 |

system: Human rhinovirus sp.; assay: Antiviral activity against rhinoviral 5 serotype in a plaque inhibition assay using monolayers of M-HeLa cells; assay type: functional, organism-based

| SMILES | IC50 [µM] |
| --- | --- |
| Cc1ccc(Cn2cnc3c(N(C)C)nc(C(F)(F)F)nc32)c(C)c1 | > 8 |
| CC(C)Oc1ccc(Cn2cnc3c(N(C)C)nc(C(F)(F)F)nc32)cc1 | 11 |

Reference: ChEMBL document CHEMBL1124634, “Synthesis and antirhinovirus activity of 6-(dimethylamino)-2-(trifluoromethyl)-9-(substituted benzyl)-9H-purines” (J Med Chem, 1989)
